Legend:
[1] = Enhancement of BMP-2 expression in mouse MC3T3-E1 cells assessed as upregulation rate at 4 uM; assay type: functional, cell-based
[2] = Toxicity in po dosed Kunming mouse; assay type: organism-based; details: in vivo
Rattus norvegicus [3] = assay: Toxicity in sham operated Sprague-Dawley rat assessed as effect on direct-high density lipoprotein level at 150 mg/kg/day, po for 90 days; assay type: organism-based; set-up: route oral; details: in vivo, 2160 h
Rattus norvegicus [4] = assay: Toxicity in sham operated Sprague-Dawley rat assessed as effect on creatinine level at 150 mg/kg/day, po for 90 days; assay type: organism-based; set-up: route oral; details: in vivo, 2160 h
Rattus norvegicus [5] = assay: Antiosteoporotic activity in ovariectomized Sprague-Dawley rat assessed as mineral apposition rate at 30 mg/kg/day, po for 90 days by bone histomorphometry; assay type: functional
Rattus norvegicus [6] = assay: Antiosteoporotic activity in po dosed ovariectomized Sprague-Dawley rat assessed as mineral apposition rate administered for 90 days by bone histomorphometry; assay type: functional, organism-based
Rattus norvegicus [7] = assay: Antiosteoporotic activity in ovariectomized Sprague-Dawley rat assessed as mineral apposition rate at 15 mg/kg/day, po for 90 days by bone histomorphometry; assay type: functional
Rattus norvegicus [8] = assay: Antiosteoporotic activity in ovariectomized Sprague-Dawley rat assessed as trabecula formation surface at 7.5 mg/kg/day, po for 90 days by bone histomorphometry; assay type: functional
Rattus norvegicus [9] = assay: Antiosteoporotic activity in ovariectomized Sprague-Dawley rat assessed as osteo cortex mineralization rate at 30 mg/kg/day, po for 90 days by bone histomorphometry; assay type: functional
Rattus norvegicus [10] = assay: Antiosteoporotic activity in ovariectomized Sprague-Dawley rat assessed as trabecula formation surface at 15 mg/kg/day, po for 90 days by bone histomorphometry; assay type: functional
Rattus norvegicus [11] = assay: Antiosteoporotic activity in ovariectomized Sprague-Dawley rat assessed as trabecula resorption surface at 30 mg/kg/day, po for 90 days by bone histomorphometry; assay type: functional
Rattus norvegicus [12] = assay: Antiosteoporotic activity in ovariectomized Sprague-Dawley rat assessed as average osteoid width at 30 mg/kg/day, po for 90 days by bone histomorphometry; assay type: functional
Rattus norvegicus [13] = assay: Toxicity in sham operated Sprague-Dawley rat assessed as effect on general behavior at 150 mg/kg/day, po for 90 days; assay type: organism-based; set-up: route oral; details: in vivo, 2160 h
Rattus norvegicus [14] = assay: Toxicity in sham operated Sprague-Dawley rat assessed as effect on triglycerides level at 150 mg/kg/day, po for 90 days; assay type: organism-based; set-up: route oral; details: in vivo, 2160 h
Rattus norvegicus [15] = assay: Antiosteoporotic activity in po dosed ovariectomized Sprague-Dawley rat assessed as average osteoid width administered for 90 days by bone histomorphometry; assay type: functional, organism-based
Rattus norvegicus [16] = assay: Antiosteoporotic activity in ovariectomized Sprague-Dawley rat assessed as trabecula formation surface at 30 mg/kg/day, po for 90 days by bone histomorphometry; assay type: functional
Rattus norvegicus [17] = assay: Toxicity in sham operated Sprague-Dawley rat assessed as effect on total cholesterol level at 150 mg/kg/day, po for 90 days; assay type: organism-based; set-up: route oral; details: in vivo, 2160 h
Rattus norvegicus [18] = assay: Antiosteoporotic activity in ovariectomized Sprague-Dawley rat assessed as average osteoid width at 7.5 mg/kg/day, po for 90 days by bone histomorphometry; assay type: functional
Rattus norvegicus [19] = assay: Toxicity in sham operated Sprague-Dawley rat assessed as effect on albumin level at 150 mg/kg/day, po for 90 days; assay type: organism-based; set-up: route oral; details: in vivo, 2160 h
Rattus norvegicus [20] = assay: Toxicity in sham operated Sprague-Dawley rat assessed as effect on blood urea nitrogen level at 150 mg/kg/day, po for 90 days; assay type: organism-based; set-up: route oral; details: in vivo, 2160 h
Rattus norvegicus [21] = assay: Antiosteoporotic activity in po dosed ovariectomized Sprague-Dawley rat assessed as osteo cortex mineralization rate administered for 90 days by bone histomorphometry; assay type: functional, organism-based
Rattus norvegicus [22] = assay: Toxicity in sham operated Sprague-Dawley rat assessed as effect on calcium level at 150 mg/kg/day, po for 90 days; assay type: organism-based; set-up: route oral; details: in vivo, 2160 h
Rattus norvegicus [23] = assay: Antiosteoporotic activity in ovariectomized Sprague-Dawley rat assessed as trabecula resorption surface at 7.5 mg/kg/day, po for 90 days by bone histomorphometry; assay type: functional
Rattus norvegicus [24] = assay: Antiosteoporotic activity in ovariectomized Sprague-Dawley rat assessed as average osteoid width at 15 mg/kg/day, po for 90 days by bone histomorphometry; assay type: functional
Rattus norvegicus [25] = assay: Antiosteoporotic activity in ovariectomized Sprague-Dawley rat assessed as trabecular bone volume at 15 mg/kg/day, po for 90 days by bone histomorphometry; assay type: functional, Trabecula
Rattus norvegicus [26] = assay: Antiosteoporotic activity in ovariectomized Sprague-Dawley rat assessed as mineral apposition rate at 7.5 mg/kg/day, po for 90 days by bone histomorphometry; assay type: functional
Rattus norvegicus [27] = assay: Toxicity in sham operated Sprague-Dawley rat assessed as effect on alkaline phosphatase level at 150 mg/kg/day, po for 90 days; assay type: organism-based; set-up: route oral; details: in vivo, 2160 h
Rattus norvegicus [28] = assay: Antiosteoporotic activity in ovariectomized Sprague-Dawley rat assessed as trabecular bone volume at 30 mg/kg/day, po for 90 days by bone histomorphometry; assay type: functional, Trabecula
Rattus norvegicus [29] = assay: Antiosteoporotic activity in po dosed ovariectomized Sprague-Dawley rat assessed as trabecula formation surface administered for 90 days by bone histomorphometry; assay type: functional, organism-based
Rattus norvegicus [30] = assay: Antiosteoporotic activity in ovariectomized Sprague-Dawley rat assessed as osteo cortex mineralization rate at 15 mg/kg/day, po for 90 days by bone histomorphometry; assay type: functional
Rattus norvegicus [31] = assay: Toxicity in sham operated Sprague-Dawley rat assessed as effect on glucose level at 150 mg/kg/day, po for 90 days; assay type: organism-based; set-up: route oral; details: in vivo, 2160 h
Rattus norvegicus [32] = assay: Toxicity in sham operated Sprague-Dawley rat assessed as effect on direct-low density lipoprotein level at 150 mg/kg/day, po for 90 days; assay type: organism-based; set-up: route oral; details: in vivo, 2160 h
Rattus norvegicus [33] = assay: Antiosteoporotic activity in po dosed ovariectomized Sprague-Dawley rat assessed as trabecula resorption surface administered for 90 days by bone histomorphometry; assay type: functional, organism-based
Rattus norvegicus [34] = assay: Toxicity in sham operated Sprague-Dawley rat assessed as effect on total protein level at 150 mg/kg/day, po for 90 days; assay type: organism-based; set-up: route oral; details: in vivo, 2160 h
Rattus norvegicus [35] = assay: Antiosteoporotic activity in ovariectomized Sprague-Dawley rat assessed as trabecular bone volume at 7.5 mg/kg/day, po for 90 days by bone histomorphometry; assay type: functional, Trabecula
Rattus norvegicus [36] = assay: Toxicity in sham operated Sprague-Dawley rat assessed as effect on total bilirubin level at 150 mg/kg/day, po for 90 days; assay type: organism-based; set-up: route oral; details: in vivo, 2160 h
Rattus norvegicus [37] = assay: Antiosteoporotic activity in po dosed ovariectomized Sprague-Dawley rat assessed as trabecular bone volume administered for 90 days by bone histomorphometry; assay type: functional, organism-based; details: Trabecula
Rattus norvegicus [38] = assay: Antiosteoporotic activity in ovariectomized Sprague-Dawley rat assessed as trabecula resorption surface at 15 mg/kg/day, po for 90 days by bone histomorphometry; assay type: functional
Rattus norvegicus [39] = assay: Toxicity in sham operated Sprague-Dawley rat assessed as effect on glutamine-oxaloacetic transaminase level at 150 mg/kg/day, po for 90 days; assay type: organism-based; set-up: route oral; details: in vivo, 2160 h
Rattus norvegicus [40] = assay: Toxicity in sham operated Sprague-Dawley rat assessed as effect on glutamic-pyruvic transaminase level at 150 mg/kg/day, po for 90 days; assay type: organism-based; set-up: route oral; details: in vivo, 2160 h
Rattus norvegicus [41] = assay: Antiosteoporotic activity in ovariectomized Sprague-Dawley rat assessed as osteo cortex mineralization rate at 7.5 mg/kg/day, po for 90 days by bone histomorphometry; assay type: functional
[42] = Toxicity in ip dosed Kunming mouse; assay type: organism-based; details: in vivo
Rattus norvegicus [43] = assay: Toxicity in sham operated Sprague-Dawley rat assessed as effect on bone histomorphometric parameters at 150 mg/kg/day, po for 90 days; assay type: organism-based; set-up: route oral; details: in vivo, 2160 h

CC(=O)c1cc2c(Cl)ccc(C)c2s1
Activity [1]: 32%

CC(=O)c1cc2cc(C(F)(F)F)ccc2s1
Activity [1]: 18.5%

CC(=O)c1cc2c(Cl)c(C)ccc2s1
Activity [1]: 39.8%

CC(=O)c1sc2ccc(C)c(Cl)c2c1C
Activity [1]: 6.5%

CC(=O)c1c[nH]c2ccccc12
Activity [1]: 22.8%

COC(=O)c1cc2ccccc2s1
Activity [1]: 27.3%

CC(=O)c1cc2cccc(C(F)(F)F)c2s1
Activity [1]: 30.2%

NNC(=O)c1cc2ccccc2s1
Activity [1]: 7.8%

CC(=O)c1cc2ccccc2s1
LD50 [2]: 5000 mg/kg
Activity (Rattus norvegicus [3]): Non-toxic
Activity (Rattus norvegicus [4]): Non-toxic
Activity (Rattus norvegicus [5]): 2.18 µm/day
Activity (Rattus norvegicus [6]): Dose-dependent effect
Activity (Rattus norvegicus [7]): 2.19 µm/day
Activity (Rattus norvegicus [8]): 7.4%
Activity (Rattus norvegicus [9]): 3.22 µm/day
Activity (Rattus norvegicus [10]): 6.64%
Activity (Rattus norvegicus [11]): 4.74%
Activity (Rattus norvegicus [12]): 10.8 µm
Activity (Rattus norvegicus [13]): Non-toxic
Activity (Rattus norvegicus [14]): Non-toxic
Activity (Rattus norvegicus [15]): Dose-dependent effect
Activity (Rattus norvegicus [16]): 6.39%
Activity (Rattus norvegicus [17]): Non-toxic
Activity (Rattus norvegicus [18]): 11.4 µm
Activity (Rattus norvegicus [19]): Non-toxic
Activity (Rattus norvegicus [20]): Non-toxic
Activity (Rattus norvegicus [21]): Dose-dependent effect
Activity (Rattus norvegicus [22]): Non-toxic
Activity (Rattus norvegicus [23]): 7.81%
Activity (Rattus norvegicus [24]): 10.9 µm
Activity (Rattus norvegicus [25]): 19.39%
Activity (Rattus norvegicus [26]): 2.32 µm/day
Activity [1]: 35.6%
Activity (Rattus norvegicus [27]): Non-toxic
Activity (Rattus norvegicus [28]): 21.02%
Activity (Rattus norvegicus [29]): Dose-dependent effect
Activity (Rattus norvegicus [30]): 3.14 µm/day
Activity (Rattus norvegicus [31]): Non-toxic
Activity (Rattus norvegicus [32]): Non-toxic
Activity (Rattus norvegicus [33]): Dose-dependent effect
Activity (Rattus norvegicus [34]): Non-toxic
Activity (Rattus norvegicus [35]): 14.41%
Activity (Rattus norvegicus [36]): Non-toxic
Activity (Rattus norvegicus [37]): Dose-dependent effect
Activity (Rattus norvegicus [38]): 5.16%
Activity (Rattus norvegicus [39]): Non-toxic
Activity (Rattus norvegicus [40]): Non-toxic
Activity (Rattus norvegicus [41]): 3.42 µm/day
LD50 [42]: 1580 mg/kg
Activity (Rattus norvegicus [43]): Non-toxic

COc1cc2cc(C(C)=O)sc2cc1OC
Activity [1]: 37.1%

From ChEMBL document CHEMBL1153043, “Synthesis and evaluation of 1-(benzo[b]thiophen-2-yl)ethanone analogues as novel anti-osteoporosis agents acting on BMP-2 promotor” (Bioorg Med Chem Lett, 2009)
